Assay results reported in the supplement of paper PMC11061612.

Legend:
[1] = test system: IM-95 (Gastric Carcinoma); assay: Bliss excess, mean over the matrix (fraction); higher = more synergy
Summary of the method: (§1)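 Bliss excess equals the observed combination effect minus the expected value EA + EB − EA·EB, where EA and EB are the effects of each agent alone. Combination Emax is the second-highest inhibition within the matrix. Inhibition was scaled from CellTiter-Glo 2.0 luminescence, with 0 set by vehicle wells and 1 by blank wells, after 72 hours of two-drug dosing of cells plated in 1536-well plates.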

[2] = test system: MOG-G-CCM (Low Grade Glioma); assay: as above
Summary of the method: as §1

[3] = test system: KY821 (Acute Myeloid Leukemia); assay: as above
Summary of the method: as §1

[4] = test system: NCI-H526 (Small Cell Lung Carcinoma); assay: as above
Summary of the method: as §1

[5] = test system: KP-3 (Pancreatic Carcinoma); assay: as above
Summary of the method: as §1

[6] = test system: PC-3 (Prostate Carcinoma); assay: as above
Summary of the method: as §1

[7] = test system: NCCIT (Other Solid Carcinomas); assay: as above
Summary of the method: as §1

[8] = test system: MOLM-13 (Acute Myeloid Leukemia); assay: as above
Summary of the method: as §1

[9] = test system: MN-60 (B-Lymphoblastic Leukemia); assay: as above
Summary of the method: as §1

[10] = test system: M059J (Glioblastoma); assay: as above
Summary of the method: as §1

[11] = test system: JHH-4 (Hepatocellular Carcinoma); assay: as above
Summary of the method: as §1

[12] = test system: KYSE-270 (Esophageal Squamous Cell Carcinoma); assay: as above
Summary of the method: as §1

[13] = test system: NCI-H929 (Plasma Cell Myeloma); assay: as above
Summary of the method: as §1

[14] = test system: G-361 (Melanoma); assay: as above
Summary of the method: as §1

[15] = test system: DAN-G (Pancreatic Carcinoma); assay: as above
Summary of the method: as §1

[16] = test system: SUP-B15 (B-Lymphoblastic Leukemia); assay: as above
Summary of the method: as §1

[17] = test system: CHSA8926 (Chondrosarcoma); assay: as above
Summary of the method: as §1

[18] = test system: HCC1187 (Breast Carcinoma); assay: as above
Summary of the method: as §1

[19] = test system: SJSA-1 (Osteosarcoma); assay: as above
Summary of the method: as §1

[20] = test system: KU812 (Chronic Myelogenous Leukemia); assay: combination Emax (second highest fraction inhibited in the dose matrix, 72 h); higher = more inhibition; extreme values may be limits of the assay
Summary of the method: as §1

Row | Compound | Bliss excess [1] | Bliss excess [2] | Bliss excess [3] | Bliss excess [4] | Bliss excess [5] | Bliss excess [6] | Bliss excess [7] | Bliss excess [8] | Bliss excess [9] | Bliss excess [10] | Bliss excess [11] | Bliss excess [12] | Bliss excess [13] | Bliss excess [14] | Bliss excess [15] | Bliss excess [16] | Bliss excess [17] | Bliss excess [18] | Bliss excess [19] | combination Emax [20]
1 | CC1(C)CCC(CN2CCN(c3ccc(C(=O)NS(=O)(=O)c4ccc(NCC5CCOCC5)c([N+](=O)[O-])c4)c(Oc4cnc5[nH]ccc5c4)c3)CC2)=C(c2ccc(Cl)cc2)C1 [Venetoclax] + C[C@@H](Nc1cc(F)cc(F)c1)c1cc(C(=O)N(C)C)cc2c(=O)cc(N3CCOCC3)oc12 [AZD8186] (first compound max 1 µM, 7x7, partner max 3 µM) | -0.068 | 0.0384 | 0.0235 | 0.033 | -0.0376 | 0.0065 | -0.0336 | 0.0046 | 0.044 | -0.0141 | 0.0064 | -0.0186 | -0.007 | 0.0075 | -0.0346 | -0.0587 | 0.0214 | -0.0069 | -0.0247 | 0.205
2 | CS(=O)(=O)CCNCc1ccc(-c2ccc3ncnc(Nc4ccc(OCc5cccc(F)c5)c(Cl)c4)c3c2)o1 [Lapatinib] + C[C@@H](Oc1cc(-c2cnn(C3CCNCC3)c2)cnc1N)c1c(Cl)ccc(F)c1Cl [Crizotinib] (first compound max 10 µM, 7x7, partner max 10 µM) | 0.0467 | -0.102 | 0.0312 | 0.0069 | -0.0234 | -0.0174 | 0.0045 | 0.0308 | -0.0288 | -0.0733 | 0.0041 | -0.0054 | -0.062 | -0.0416 | 0.0148 | 0.024 | -0.0231 | -0.0156 | -0.017 | 0.999
3 | COc1cc2c(cc1OCCCCCOc1cc3c(cc1OC)C(=O)N1C=C(C)C[C@H]1C=N3)N=C[C@@H]1CC(C)=CN1C2=O [SG3199] + O=C(c1cc(Cc2n[nH]c(=O)c3ccccc23)ccc1F)N1CCN(C(=O)C2CC2)CC1 [Olaparib] (first compound max 0.001 µM, 7x7, partner max 10 µM) | -0.0392 | -0.0387 | -0.0244 | -0.0148 | -0.0424 | -0.0417 | -0.0225 | 0.0049 | -0.027 | -0.037 | -0.0327 | -0.0595 | -0.0333 | -0.0294 | -0.0266 | -0.0051 | -0.0566 | -0.006 | -0.0252 | 0.192
4 | Cc1cc2ncnn2cc1Nc1ncc2c(n1)n(C1CCOCC1)c(=O)n2C [AZD7648] + C[C@@H]1COCCN1C2=NC(=NC(=C2)C3(CC3)[S@](=N)(=O)C)C4=C5C=CNC5=NC=C4 [AZD6738] (first compound max 10 µM, 7x7, partner max 10 µM) | 0.0163 | -0.062 | 0.0008 | 0.0174 | 0.0351 | -0.0161 | 0.0116 | 0.0003 | -0.0135 | 0.0282 | 0.013 | 0.0008 | -0.0268 | 0.0105 | -0.0093 | -0.0159 | -0.0325 | 0.0005 | 0.0225 | 0.769
5 | CC1(C)CCC(CN2CCN(c3ccc(C(=O)NS(=O)(=O)c4ccc(NCC5CCOCC5)c([N+](=O)[O-])c4)c(Oc4cnc5[nH]ccc5c4)c3)CC2)=C(c2ccc(Cl)cc2)C1 [Venetoclax] + C[C@@H]1COCCN1C2=NC(=NC(=C2)C3(CC3)[S@](=N)(=O)C)C4=C5C=CNC5=NC=C4 [AZD6738] (first compound max 1 µM, 7x7, partner max 10 µM) | -0.0191 | -0.045 | -0.0336 | 0.0144 | -0.0227 | -0.035 | -0.0355 | 0.0068 | 0.0434 | -0.0258 | -0.0399 | -0.0188 | -0.0567 | -0.0132 | -0.0536 | 0.0383 | -0.0216 | -0.0095 | -0.0447 | 0.83
6 | C=CCn1c(=O)c2cnc(Nc3ccc(N4CCN(C)CC4)cc3)nc2n1-c1cccc(C(C)(C)O)n1 [AZD1775] + C[C@@H]1COCCN1C2=NC(=NC(=C2)C3(CC3)[S@](=N)(=O)C)C4=C5C=CNC5=NC=C4 [AZD6738] (first compound max 1 µM, partner max 10 µM) | 0.0804 | 0.0195 | 0.0358 | 0.0576 | -0.0075 | -0.0049 | 0.0526 | 0.0233 | 0.0165 | -0.0206 | 0.0007 | 0.0567 | -0.0042 | -0.0177 | -0.0079 | 0.0535 | -0.0268 | 0.0558 | 0.0047 | 0.849
7 | Cc1c2c(nn1C)CSCc1cc(n(C)n1)CSc1cc(c3ccccc3c1)OCCCc1c(C(=O)O)n(C)c3c-2c(Cl)ccc13 [AZD5991] + Cn1cnc2c(F)c(Nc3ccc(Br)cc3Cl)c(C(=O)NOCCO)cc21 [Selumetinib] (first compound max 1 µM, 7x7, partner max 3 µM) | 0.0906 | -0.0241 | 0.0044 | 0.0123 | -0.0378 | -0.0029 | 0.0003 | 0.0409 | -0.0125 | -0.102 | 0.0244 | 0.0409 | 0.0275 | 0.0083 | 0.0588 | 0.0806 | -0.0772 | -0.0139 | -0.0733 | 0.949
8 | COc1cccc(OCCCN)c1-c1cc(Nc2cnc(C#N)cn2)n[nH]1 [Prexasertib] + Cc1cc2ncnn2cc1Nc1ncc2c(n1)n(C1CCOCC1)c(=O)n2C [AZD7648] (first compound max 1 µM, 7x7, partner max 10 µM) | -0.0163 | -0.0037 | 0.0276 | -0.0038 | 0.0141 | -0.036 | -0.0331 | -0.0094 | 0.0271 | -0.0178 | -0.0281 | -0.0355 | -0.0864 | -0.0052 | -0.0095 | -0.0406 | -0.0143 | 0.0307 | -0.0326 | 0.789
9 | CC(=O)c1c(C)c2cnc(Nc3ccc(N4CCNCC4)cn3)nc2n(C2CCCC2)c1=O [Palbociclib] + Cc1c2c(nn1C)CSCc1cc(n(C)n1)CSc1cc(c3ccccc3c1)OCCCc1c(C(=O)O)n(C)c3c-2c(Cl)ccc13 [AZD5991] (first compound max 10 µM, 7x7, partner max 1 µM) | -0.114 | -0.0595 | -0.0372 | 0.0026 | -0.0436 | -0.0501 | -0.0538 | -0.0314 | -0.0363 | -0.0303 | -0.0518 | -0.0804 | 0.0099 | -0.0464 | -0.0356 | -0.207 | -0.0807 | 0.0023 | -0.0426 | 0.834
10 | COc1cccc(OCCCN)c1-c1cc(Nc2cnc(C#N)cn2)n[nH]1 [Prexasertib] + C[C@@H]1COCCN1C2=NC(=NC(=C2)C3(CC3)[S@](=N)(=O)C)C4=C5C=CNC5=NC=C4 [AZD6738] (first compound max 1 µM, 7x7, partner max 10 µM) | 0.0244 | -0.0254 | -0.0129 | 0.0283 | 0.0162 | -0.0102 | 0.011 | -0.0051 | -0.0035 | -0.0325 | 0.0024 | -0.0323 | -0.0081 | 0.045 | -0.0309 | -0.0671 | 0.0171 | 0.0754 | 0.0188 | 0.756
11 | Cc1cc2ncnn2cc1Nc1ncc2c(n1)n(C1CCOCC1)c(=O)n2C [AZD7648] + CN(C)CCCOc1ccc(-c2ccc3ncc4c(c3c2)n(C2CCOCC2)c(=O)n4C)cn1 [AZD0156] (first compound max 10 µM, 7x7, partner max 1 µM) | 0.0121 | -0.0609 | 0.0429 | 0.0429 | 0.0074 | 0.0109 | -0.0105 | 0.0085 | -0.0405 | 0.0149 | 0.0025 | -0.0004 | -0.0727 | 0.0032 | -0.0168 | -0.0084 | 0.0091 | -0.0086 | -0.0385 | 0.467
12 | Cn1cnc2c(F)c(Nc3ccc(Br)cc3Cl)c(C(=O)NOCCO)cc21 [Selumetinib] + CC(C)n1c(=O)n(C)c2cnc3cc(F)c(-c4ccc(OCCCN5CCCCC5)nc4)cc3c21 [AZD1390] (first compound max 10 µM, 7x7, partner max 0.3 µM) | -0.0078 | -0.0476 | 0.0169 | -0.0186 | -0.0456 | -0.0688 | -0.041 | -0.0306 | -0.0402 | -0.0375 | -0.0444 | -0.0376 | 0.0105 | -0.0582 | -0.0484 | -0.0281 | -0.0477 | 0.0068 | -0.042 | 0.949
13 | CCN(CCO)CCCOc1ccc2c(Nc3cc(CC(=O)Nc4cccc(F)c4)[nH]n3)ncnc2c1 [AZD2811] + C[C@@H]1COCCN1C2=NC(=NC(=C2)C3(CC3)[S@](=N)(=O)C)C4=C5C=CNC5=NC=C4 [AZD6738] (first compound max 1 µM, 7x7, partner max 10 µM) | 0.0291 | -0.0116 | 0.105 | -0.0178 | -0.0582 | -0.061 | -0.0506 | -0.0161 | -0.0215 | -0.0138 | -0.0341 | -0.0449 | -0.0341 | -0.0875 | -0.0427 | -0.0468 | -0.0037 | -0.0841 | -0.0348 | 0.799
14 | CCN(CCO)CCCOc1ccc2c(Nc3cc(CC(=O)Nc4cccc(F)c4)[nH]n3)ncnc2c1 [AZD2811] + C=CCn1c(=O)c2cnc(Nc3ccc(N4CCN(C)CC4)cc3)nc2n1-c1cccc(C(C)(C)O)n1 [AZD1775] (first compound max 1 µM, partner max 1 µM) | 0.0486 | -0.0178 | 0.0868 | -0.0226 | -0.036 | -0.0117 | -0.0037 | -0.0698 | 0.0139 | -0.0176 | 0.0015 | -0.0281 | -0.0671 | -0.0162 | -0.0144 | 0.044 | 0.0032 | -0.0086 | -0.0109 | 0.725
